Data published in patent publication US8841420B2, “Synthetic peptide constructs for the diagnosis and treatment of periodontis associated with Porphyromonas gingivalis” (priority 1997, dated 2014).
No end group written: not given here.

How the values were obtained:
[1] = biological target: T1, PrtRII50 Arg-specific proteinase (Porphyromonas gingivalis, UniProt P95493); assay type: biochemical, Porphyromonas gingivalis W50; conditions: inhibition at similar concentrations to that which inhibited the PrtR45
T1 construct: made in house; host or cells: Porphyromonas gingivalis W50 (native enzyme purified from cell sonicate, not recombinant)
Protocol: P. gingivalis W50 was grown in batch culture (5 L) and harvested at late logarithmic phase by centrifugation (5,000×g, 20 min, 4° C.). Cells were washed once with 150 ml TC buffer (20 mM Tris-HCl pH 7.4 and 5 mM CaCl2) containing 50 mM NaCl and sonicated as described previously (Bhogal et al., 1997). The sonicate was centrifuged (100,000×g, 30 min, 4° C.) and the supernatant filtered (0.22 μm) prior to anion-exchange FPLC. The sonicate was applied to an anion-exchange column (Hiload XK 16/10 Q Sepharose, Pharmacia-LKB) cooled to 4° C., in multiple injections using a 50 ml superloop (Pharmacia-LKB). The sonicate was eluted using a linear gradient from 0-100% buffer B over 90 min at a flow rate of 2.0 ml min^−1. Absorbance was monitored at 280 nm and elutant collected at 4° C. in 6 ml fractions using a Frac 100 fraction collector (Pharmacia-LKB). Buffer A was TC buffer containing 50 mM NaCl and buffer B was TC buffer containing 500 mM NaCl. Fractions were analysed for proteolytic and amidolytic activity using azocasein (A-2765, Sigma Chemical Co. St Louis, Mo.), benzoyl-L-Arg-p-nitroanilide (Bz-L-Arg-pNA, Sigma) and benzyloxycarbonyl-L-Lys-p-nitroanilide (z-L-Lys-pNA, Calbiochem, Melbourne, Australia) as described previously (Bhogal et al., 1997) except that fractions were pre-incubated with 10 mM cysteine for 10 min at 25° C. before the addition of substrate. For the amidolytic assays absorbance was monitored at 410 nm as previously described (Bhogal et al., 1997) and the amidolytic activity expressed as U where U=μmol substrate converted min^−1 at 25° C. Anion-exchange fractions eluting between 160-246 mM NaCl containing the highest ratio of Arg-specific to Lys-specific activity were, washed and concentrated in TC buffer containing 150 mM NaCl using a centripep and centricon 10 concentrators (Amicon) and applied to a gel filtration column (Superose 12, HR 10/30, Pharmacia-LKB) using TC buffer containing 150 mM NaCl at a flow rate of 0.3 ml min^−1. Absorbance was monitored at 280 nm and fractions collected at 4° C. using a Frac 100 fraction collector. The Mr values of eluant peaks were determined using gel filtration molecular mass standards (Pharmacia-LKB). The peak eluting at 50 kDa containing only Arg-specific amidolytic activity was washed in TC buffer containing 50 mM NaCl using a centricon-10 concentrator (Amicon) and applied to a Mono Q (HR 5/5) anion-exchange column using a 5 ml loop and eluted using a linear gradient of 0-100% buffer B at a flow rate 1.0 ml min^−. Buffer A was TC buffer containing 150 mM NaCl, buffer B was TC buffer containing 500 mM NaCl. Absorbance was monitored at 280 nm and fractions collected at 4° C. using a Frac 100 fraction collector.

[2] = tested on: Porphyromonas gingivalis strain 33277; assay: Murine lesion (abscess) model, immunisation then P. gingivalis challenge; assay type: in vivo, BALB/c mice; conditions: for Maximum lesion size: BALB/c mice immunised s.c. with 50 μg antigen (or 2×10^9 killed cells) in CFA then IFA, s.c. challenge 8×10^9 cells, measured over 10 days; for protection against P. gingivalis challenge (lesion size), in words: relative to DT or adjuvant alone controls
Protocol: BALB/c mice (6 per group) were inoculated (s.c.) with 50 μg of antigen emulsified in CFA and IFA for the primary and secondary inoculations and then challenged (s.c.) with 8×10^9 cells of P. gingivalis strain 33277.
BALB/c mice 6-8 weeks old were immunised subcutaneously with either 50 μg of the peptide-DT conjugate, 50 μg of DT or 2×10^9 formalin killed cells of Porphyromonas gingivalis strain 33277 emulsified in complete Freund's adjuvant (CFA). After 30 days the mice were injected subcutaneously with antigen (either 50 μg of the peptide-DT conjugate, 50 μg of DT or 2×10^9 formalin killed cells of Porphyromonas gingivalis strain 33277) emulsified in incomplete Freund's adjuvant (IFA) and then bled from the retrobulbar plexus 12 days later. All mice were challenged with 8×10^9 cells of P. gingivalis (200 μL) by subcutaneous injection in the abdomen and weighed and lesion size measured over 10 days. Lesion sizes are expressed as mm^2 and were statistically analysed using a Kruskal-Wallis one-way ANOVA and Mann-Whitney U-Wilcoxon rank sum W test.

[3] = tested on: TLCK-inactivated PrtR-PrtK proteinase-adhesin complex; assay: Competitive binding assay (ELISA, ABM peptide-coated plates); set-up: species or system Porphyromonas gingivalis W50; conditions: for inhibition of binding of the TLCK-inactivated PrtR-PrtK complex to the adsorbed ABM peptide: competitor in solution; for binding of the PrtR-PrtK complex to the substance: TLCK-inactivated complex
Protocol: Competitive Binding Assay
Wells of flat-bottomed polyvinyl microtitre plates (Microtitre, Dynatech Laboratories, VA) were coated overnight at 4° C. using a solution (5 mg/ml) of the adhesin binding motif (ABM) peptide in 0.1M phosphate buffered saline, pH 7.4, containing 0.1% v/v Tween 20 (PBST) and 0.1% w/v sodium azide. After removal of the coating solution, 2% w/v skim milk powder in PEST was added to block the remaining uncoated plastic for 1 hour at room temperature and then washed (4×PBST). A solution (1 mg/ml) of the PrtR-PrtK proteinase-adhesion complex (inactivated with 1 mM TLCK) was incubated with known concentrations of ABM peptide, control peptide and casein for 1 hour and then transferred to the microtitre plates coated with the ABM peptide. Following incubation for 2 hours at 37° C. the plates were washed (5×PBST). A 1/10,000 dilution of rabbit anti-PrtR-PrtK antisera in PBST containing 1% w/v skim milk powder was then added to the washed wells and incubated for 2 hours at 37° C. Bound antibody was detected by incubation with horseradish peroxidase-conjugated goat immunoglobulin (Ig) directed against rabbit Ig (BioRad, Richmond, Calif.) for 1.5 hours at 37° C. After washing (5×PBST), substrate (0.4 mM 3,3′,5,5′-tetramethylbenzidine in 0.1M sodium acetate/citric acid buffer containing 0.004% v/v hydrogen peroxide) was added and colour development was stopped by addition of 2M H2SO4. Optical density (O.D.) at 450 nm was measured using a BioRad microplate reader model 450.

T1 sequence (P95493 230-736): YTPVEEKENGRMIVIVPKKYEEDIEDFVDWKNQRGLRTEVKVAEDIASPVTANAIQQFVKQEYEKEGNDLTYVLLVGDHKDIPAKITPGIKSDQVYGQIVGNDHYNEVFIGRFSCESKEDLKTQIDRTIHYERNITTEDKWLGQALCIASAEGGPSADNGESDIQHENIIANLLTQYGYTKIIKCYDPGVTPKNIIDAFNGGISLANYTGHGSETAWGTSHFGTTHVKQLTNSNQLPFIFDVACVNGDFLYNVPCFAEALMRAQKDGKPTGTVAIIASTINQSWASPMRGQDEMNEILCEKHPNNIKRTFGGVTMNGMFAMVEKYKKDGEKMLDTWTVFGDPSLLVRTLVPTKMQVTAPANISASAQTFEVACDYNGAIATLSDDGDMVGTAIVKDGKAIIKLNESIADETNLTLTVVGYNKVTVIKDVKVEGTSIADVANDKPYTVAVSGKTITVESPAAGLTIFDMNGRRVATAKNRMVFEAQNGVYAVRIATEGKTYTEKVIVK

| Compound | effect on activity of the Arg-specific 50 kDa enzyme [1] | Maximum lesion size [2] | other results |
| --- | --- | --- | --- |
| NCCc1ccc(S(=O)(=O)F)cc1 [4-(2-aminoethyl)-benzenesulfonyl fluoride] | not inhibited |  |  |
| O=C(O)CN(CCN(CC(=O)O)CC(=O)O)CC(=O)O [EDTA] | inhibited |  |  |
| N[C@@H](CS)C(=O)O [cysteine] | activated |  |  |
| CC(=O)N[C@@H](CC(C)C)C(=O)N[C@@H](CC(C)C)C(=O)N[C@H](C=O)CCCNC(=N)N [leupeptin] | inhibited |  |  |
| O=S(=O)(F)Cc1ccccc1 [phenylmethyl sulfonyl fluoride] | not inhibited |  |  |
| ABM3 (K44)-OT: ABM3 (R44) peptide (SEQ ID NO: 98) conjugated to diphtheria toxoid (VTLKWDAPNGTPNPNPNPNPNPNPGTTTLSESF-NH2; not fully specified (N-terminus); also: conjugated to diphtheria toxoid; listed as Porphyromonas gingivalis) |  | 12.27 mm^2 |  |
| ABM4 (K44)-DT: ABM4 (K44) peptide (SEQ ID NO: 35) conjugated to diphtheria toxoid (WIERTVDLPAGTKYVAFRHY-NH2; not fully specified (N-terminus); also: conjugated to diphtheria toxoid; listed as Porphyromonas gingivalis) |  | 18.83 mm^2 |  |
| ABM5 (R15)-DT: ABM5 (R15) peptide (SEQ ID NO: 50) conjugated to diphtheria toxoid (PAEWTTIDADGDGQGW-NH2; not fully specified (N-terminus); also: conjugated to diphtheria toxoid; listed as Porphyromonas gingivalis) |  | 14.79 mm^2 |  |
| Control peptide-DT: Control peptide PrtR27 (1432-1463) (SEQ ID NO: 97) conjugated to diphtheria toxoid (ANEAKVVLAADNVWGDNTGYQFLLDADHNTFG; also: conjugated to diphtheria toxoid; listed as Porphyromonas gingivalis) [reference compound] |  | 36.61 mm^2 | protection against P. gingivalis challenge (lesion size), in words [2]: did not provide protection |
| Diphtheria Toxoid [DT, reference compound] |  | 33.59 mm^2 | protection against P. gingivalis challenge (lesion size), in words [2]: does not provide protection |
| FNGGISLANYTGHGSETAWGT (listed as Porphyromonas gingivalis) [PAS1 (R45)] |  |  | inhibition of binding of the TLCK-inactivated PrtR-PrtK complex to the adsorbed ABM peptide ([3]; FIG. 10): did not inhibit |
| PAS1 (R45)-DT: PAS1 (R45) peptide (SEQ ID NO: 1) conjugated to diphtheria toxoid (FNGGISLANYTGHGSETAWGT; also: conjugated to diphtheria toxoid; listed as Porphyromonas gingivalis) |  | 10.46 mm^2 | protection against P. gingivalis challenge (lesion size), in words [2]: Significantly reduced lesion size |
| PYQPVSNLTATTQGQKVTLKWDAPSTK [ABM1 (R45)] |  |  | molar excess of peptide in solution required to inhibit binding of the complex to the ABM peptide adsorbed onto the microtitre plate ([3]; TLCK-inactivated PrtR-PrtK complex 1 mg/ml, FIG. 10): 5-100 fold; binding of the PrtR-PrtK complex to the substance [3]: Specific binding |
| casein [reference compound] |  |  | binding of the PrtR-PrtK complex to the substance [3]: lack of binding; inhibition of binding of the TLCK-inactivated PrtR-PrtK complex to the adsorbed ABM peptide ([3]; FIG. 10): did not inhibit |
